From patent US12516046B2, “2-oxo-oxazolidine-5-carboxamides as NAV1.8 inhibitors” (Merck Sharp & Dohme LLC, priority 2020, dated 2026)

Molecular target: human Nav1.8 (Homo sapiens (Human), UniProt Q9Y5Y9)
Assay: Nav1.8 Qube® Assay (automated 384-well patch-clamp)
Assay type: cell-based
Conditions: human Nav1.8 channels stably expressed in HEK 293 cells
From the text: Qube® Assay Experimental Procedure

human Nav1.8, sequence (Q9Y5Y9 whole entry): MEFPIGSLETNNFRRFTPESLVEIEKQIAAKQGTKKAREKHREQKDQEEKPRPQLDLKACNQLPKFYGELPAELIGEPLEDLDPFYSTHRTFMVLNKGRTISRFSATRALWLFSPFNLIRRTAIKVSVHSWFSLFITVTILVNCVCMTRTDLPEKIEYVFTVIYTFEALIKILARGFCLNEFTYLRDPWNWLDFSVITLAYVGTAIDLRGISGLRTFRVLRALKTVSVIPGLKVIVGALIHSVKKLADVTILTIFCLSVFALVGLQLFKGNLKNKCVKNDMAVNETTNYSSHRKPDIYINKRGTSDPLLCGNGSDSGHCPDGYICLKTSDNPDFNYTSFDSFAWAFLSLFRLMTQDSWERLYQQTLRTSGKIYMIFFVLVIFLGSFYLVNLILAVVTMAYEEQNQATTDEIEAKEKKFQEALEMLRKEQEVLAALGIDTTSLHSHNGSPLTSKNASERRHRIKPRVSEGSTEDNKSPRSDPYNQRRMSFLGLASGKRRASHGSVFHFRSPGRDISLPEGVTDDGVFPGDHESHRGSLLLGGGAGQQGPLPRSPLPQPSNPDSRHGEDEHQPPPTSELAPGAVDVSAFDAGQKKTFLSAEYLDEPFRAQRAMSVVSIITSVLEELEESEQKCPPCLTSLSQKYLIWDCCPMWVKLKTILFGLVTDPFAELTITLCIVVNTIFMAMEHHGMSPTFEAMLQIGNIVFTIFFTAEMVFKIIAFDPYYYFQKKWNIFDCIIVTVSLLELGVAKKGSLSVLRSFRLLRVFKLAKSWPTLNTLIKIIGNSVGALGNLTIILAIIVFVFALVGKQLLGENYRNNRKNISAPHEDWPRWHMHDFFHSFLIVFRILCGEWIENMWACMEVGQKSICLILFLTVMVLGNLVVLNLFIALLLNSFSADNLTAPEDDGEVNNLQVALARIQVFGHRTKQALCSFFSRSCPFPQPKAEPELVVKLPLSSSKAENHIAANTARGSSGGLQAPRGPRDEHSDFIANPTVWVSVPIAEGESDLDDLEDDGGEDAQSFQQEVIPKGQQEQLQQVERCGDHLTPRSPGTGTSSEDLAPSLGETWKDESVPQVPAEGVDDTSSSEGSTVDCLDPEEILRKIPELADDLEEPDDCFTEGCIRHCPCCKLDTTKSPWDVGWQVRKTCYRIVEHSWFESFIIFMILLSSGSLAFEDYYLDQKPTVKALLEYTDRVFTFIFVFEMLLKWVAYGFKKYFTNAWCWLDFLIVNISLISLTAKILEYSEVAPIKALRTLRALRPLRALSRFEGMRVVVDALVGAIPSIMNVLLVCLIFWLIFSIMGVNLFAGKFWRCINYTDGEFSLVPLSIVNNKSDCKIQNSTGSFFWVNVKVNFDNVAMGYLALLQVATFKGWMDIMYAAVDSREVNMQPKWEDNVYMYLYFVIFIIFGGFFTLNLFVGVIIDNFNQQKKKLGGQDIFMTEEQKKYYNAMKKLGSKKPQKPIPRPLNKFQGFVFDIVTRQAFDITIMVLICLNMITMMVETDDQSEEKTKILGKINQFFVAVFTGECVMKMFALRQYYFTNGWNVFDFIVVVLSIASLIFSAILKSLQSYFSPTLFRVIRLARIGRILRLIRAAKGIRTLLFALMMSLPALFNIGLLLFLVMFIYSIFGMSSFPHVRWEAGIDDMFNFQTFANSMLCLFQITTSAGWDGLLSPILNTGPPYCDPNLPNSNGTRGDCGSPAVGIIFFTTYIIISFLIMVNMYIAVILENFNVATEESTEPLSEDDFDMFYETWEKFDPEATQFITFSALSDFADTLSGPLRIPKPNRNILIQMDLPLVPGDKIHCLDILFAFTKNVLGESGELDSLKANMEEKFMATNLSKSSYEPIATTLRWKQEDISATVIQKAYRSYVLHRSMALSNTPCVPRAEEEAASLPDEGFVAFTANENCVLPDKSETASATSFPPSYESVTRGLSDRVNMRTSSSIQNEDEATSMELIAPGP

Compound | IC50 [nM]
O=C1NC[C@@H](C(=O)NC(c2ccc(Cl)cc2)c2c[nH]c(C(F)(F)F)n2)O1 (single isomer, unassigned) [Example 17B, (S)-N-((R or S)-(4-chlorophenyl)(2-(trifluoromethyl)-1H-imidazol-4-yl)methyl)-2-oxooxazolidine-5-carboxamide] | 10600
O=C1NC[C@@H](C(=O)NC(c2ccc(Cl)cc2)c2coc(C(F)(F)F)n2)O1 (single isomer, unassigned) [Example 18A, (S)-N-((R or S)-(4-chlorophenyl)(2-(trifluoromethyl)oxazol-4-yl)methyl)-2-oxooxazolidine-5-carboxamide] | 31
O=C1NC[C@@H](C(=O)NC(c2ccc(Cl)cc2)c2coc(C(F)(F)F)n2)O1 (single isomer, unassigned) [Example 18B, (S)-N-((R or S)-(4-chlorophenyl)(2-(trifluoromethyl)oxazol-4-yl)methyl)-2-oxooxazolidine-5-carboxamide] | 272
COc1ccc(C(NC(=O)[C@@H]2CNC(=O)O2)c2ccc(Cl)cc2)cn1 (single isomer, unassigned) [Example 22A, (S)-N-((R or S)-(4-chlorophenyl)(6-methoxypyridin-3-yl)methyl)-2-oxooxazolidine-5-carboxamide] | 130
COc1ccc(C(NC(=O)[C@@H]2CNC(=O)O2)c2ccc(Cl)cc2)cn1 (single isomer, unassigned) [Example 22B, (S)-N-((R or S)-(4-chlorophenyl)(6-methoxypyridin-3-yl)methyl)-2-oxooxazolidine-5-carboxamide] | 314
O=C1NC[C@@H](C(=O)NC(c2ccc(Cl)cc2)c2ccc(F)cn2)O1 (single isomer, unassigned) [Example 23A, (S)-N-((R or S)-(4-chlorophenyl)(5-fluoropyridin-2-yl)methyl)-2-oxooxazolidine-5-carboxamide] | 1350
O=C1NC[C@@H](C(=O)NC(c2ccc(Cl)cc2)c2ccc(F)cn2)O1 (single isomer, unassigned) [Example 23B, (S)-N-((R or S)-(4-chlorophenyl)(5-fluoropyridin-2-yl)methyl)-2-oxooxazolidine-5-carboxamide] | 233
O=C1NC[C@@H](C(=O)NC(c2ccccc2)c2ccc(Cl)c(Cl)c2)O1 (single isomer, unassigned) [Example 25B, (S)-N-((R or S)-(3,4-dichlorophenyl) (phenyl)methyl)-2-oxooxazolidine-5-carboxamide] | 14
O=C1NC[C@@H](C(=O)NC(c2cccc(Cl)c2)C2CC2c2ccccc2)O1 (single isomer, unassigned) [Example 26A, (5S)-N-((R or S)-(3-chlorophenyl) ((cis or trans)-2-phenylcyclopropyl)methyl)-2-oxooxazolidine-5-carboxamide] | 326
O=C1NC[C@@H](C(=O)NC(c2cccc(Cl)c2)C2CC2c2ccccc2)O1 (single isomer, unassigned) [Example 26B, (5S)-N-((R or S)-(3-chlorophenyl) ((cis or trans)-2-phenylcyclopropyl)methyl)-2-oxooxazolidine-5-carboxamide] | 70
COc1ccc(Cl)cc1C(NC(=O)[C@@H]1CNC(=O)O1)c1cccc(Cl)c1 (single isomer, unassigned) [Example 28A, (S)-N-((R or S)-(5-chloro-2-methoxyphenyl)(3-chlorophenyl)methyl)-2-oxooxazolidine-5-carboxamide] | 21
O=C1NC[C@@H](C(=O)NC(c2ccc(Cl)cc2)c2cccc(F)c2F)O1 (single isomer, unassigned) [Example 29A, (S)-N-((R or S)-(4-chlorophenyl)(2,3-difluorophenyl)methyl)-2-oxooxazolidine-5-carboxamide] | 14
O=C1NC[C@@H](C(=O)NC(c2ccc(Cl)cc2)c2cccc(F)c2F)O1 (single isomer, unassigned) [Example 29B, (S)-N-((R or S)-(4-chlorophenyl)(2,3-difluorophenyl)methyl)-2-oxooxazolidine-5-carboxamide] | 74
CC(C)c1cccc(C(NC(=O)[C@@H]2CNC(=O)O2)c2ccc(Cl)cc2)c1 (single isomer, unassigned) [Example 32B, (S)-N-((R or S)-(4-chlorophenyl)(3-isopropylphenyl)methyl)-2-oxooxazolidine-5-carboxamide] | 12
O=C1NC[C@@H](C(=O)NC(c2ccc(Cl)cc2)c2cccc(C3CC3)c2)O1 (single isomer, unassigned) [Example 33B, (S)-N-((R or S)-(4-chlorophenyl)(3-cyclopropylphenyl)methyl)-2-oxooxazolidine-5-carboxamide] | 9.4
O=C1NC[C@@H](C(=O)NC(c2ccc(Cl)cc2)c2ccc(C(F)(F)F)cn2)O1 (single isomer, unassigned) [Example 37A, (S)-N-((R or S)-(4-chlorophenyl)(5-(trifluoromethyl)pyridin-2-yl)methyl)-2-oxooxazolidine-5-carboxamide] | 113
O=C1NC[C@@H](C(=O)NC(c2ccc(Cl)cc2)c2ccc(C(F)(F)F)cn2)O1 (single isomer, unassigned) [Example 37B, (S)-N-((R or S)-(4-chlorophenyl)(5-(trifluoromethyl)pyridin-2-yl)methyl)-2-oxooxazolidine-5-carboxamide] | 26
CC(C)(C)c1csc(C(NC(=O)[C@@H]2CNC(=O)O2)c2ccc(Cl)cc2)n1 (single isomer, unassigned) [Example 39B, (S)-N-((R or S)-(4-(tert-butyl)thiazol-2-yl)(4-chlorophenyl)methyl)-2-oxooxazolidine-5-carboxamide] | 64
O=C1NC[C@@H](C(=O)NC(c2ccc(Cl)cc2)C2CCN(CC(F)(F)F)CC2)O1 (single isomer, unassigned) [Example 42A, (S)-N-((R or S)-(4-chlorophenyl)(1-(2,2,2-trifluoroethyl)piperidin-4-yl)methyl)-2-oxooxazolidine-5-carboxamide] | 936
O=C1NC[C@@H](C(=O)NC(c2ccc(Cl)cc2)C2CCN(CC(F)(F)F)CC2)O1 (single isomer, unassigned) [Example 42B, (S)-N-((R or S)-(4-chlorophenyl)(1-(2,2,2-trifluoroethyl)piperidin-4-yl)methyl)-2-oxooxazolidine-5-carboxamide] | 272
O=C1NC[C@@H](C(=O)NC(c2ccc(F)c(Cl)c2)C2CCN(CC(F)(F)F)C2)O1 (single isomer, unassigned) [Example 43A, (S)-N-((R or S)-(3-chloro-4-fluorophenyl)((R or S)-1-(2,2,2-trifluoroethyl)pyrrolidin-3-yl)methyl)-2-oxooxazolidine-5-carboxamide] | 1760
O=C1NC[C@@H](C(=O)NC(c2ccc(F)c(Cl)c2)C2CCN(CC(F)(F)F)C2)O1 (single isomer, unassigned) [Example 43B, (S)-N-((R or S)-(3-chloro-4-fluorophenyl)((R or S)-1-(2,2,2-trifluoroethyl)pyrrolidin-3-yl)methyl)-2-oxooxazolidine-5-carboxamide] | 807

Now those with a lower IC50, led by results:

IC50 [nM] | Compound
8.4 | COc1ccc(Cl)cc1C(NC(=O)[C@@H]1CNC(=O)O1)c1cccc(Cl)c1 (single isomer, unassigned) [Example 28B, (S)-N-((R or S)-(5-chloro-2-methoxyphenyl)(3-chlorophenyl)methyl)-2-oxooxazolidine-5-carboxamide]
5.1 | CC(C)(C)c1csc(C(NC(=O)[C@@H]2CNC(=O)O2)c2ccc(Cl)cc2)n1 (single isomer, unassigned) [Example 39A, (S)-N-((R or S)-(4-(tert-butyl)thiazol-2-yl)(4-chlorophenyl)methyl)-2-oxooxazolidine-5-carboxamide]
5 | CC(C)c1cccc(C(NC(=O)[C@@H]2CNC(=O)O2)c2ccc(Cl)cc2)c1 (single isomer, unassigned) [Example 32A, (S)-N-((R or S)-(4-chlorophenyl)(3-isopropylphenyl)methyl)-2-oxooxazolidine-5-carboxamide]
4.8 | O=C1NC[C@@H](C(=O)NC(c2ccc(Cl)cc2)c2cccc(C3CC3)c2)O1 (single isomer, unassigned) [Example 33A, (S)-N-((R or S)-(4-chlorophenyl)(3-cyclopropylphenyl)methyl)-2-oxooxazolidine-5-carboxamide]
4.6 | O=C1NC[C@@H](C(=O)NC(c2ccc(F)c(Cl)c2)c2csc(C(F)(F)F)n2)O1 (single isomer, unassigned) [Example 44A, (S)—N—((R or S)-(3-chloro-4-fluorophenyl)(2-(trifluoromethyl)thiazol-4-yl)methyl)-2-oxooxazolidine-5-carboxamide]
3.8 | O=C1NC[C@@H](C(=O)NC(c2ccc(Cl)cc2)c2ccc(Cl)c(C(F)(F)F)c2)O1 (single isomer, unassigned) [Example 35B, (S)-N-((R or S)-(4-chloro-3-(trifluoromethyl)phenyl)(4-chlorophenyl)methyl)-2-oxooxazolidine-5-carboxamide]
2.7 | O=C1NC[C@@H](C(=O)NC(c2ccccc2)c2ccc(Cl)c(Cl)c2)O1 (single isomer, unassigned) [Example 25A, (S)-N-((R or S)-(3,4-dichlorophenyl) (phenyl)methyl)-2-oxooxazolidine-5-carboxamide]
2.4 | O=C1NC[C@@H](C(=O)NC(c2ccc(Cl)cc2)c2ccc(F)c(Cl)c2)O1 (single isomer, unassigned) [Example 19B, (S)—N—((R or S)-(3-chloro-4-fluorophenyl)(4-chlorophenyl)methyl)-2-oxooxazolidine-5-carboxamide]
0.9 | O=C1NC[C@@H](C(=O)NC(c2ccc(Cl)cc2)c2ccc(F)c(Cl)c2)O1 (single isomer, unassigned) [Example 19A, (S)—N—((R or S)-(3-chloro-4-fluorophenyl)(4-chlorophenyl)methyl)-2-oxooxazolidine-5-carboxamide]
0.4 | O=C1NC[C@@H](C(=O)NC(c2ccc(Cl)cc2)c2ccc(Cl)c(C(F)(F)F)c2)O1 (single isomer, unassigned) [Example 35A, (S)-N-((R or S)-(4-chloro-3-(trifluoromethyl)phenyl)(4-chlorophenyl)methyl)-2-oxooxazolidine-5-carboxamide]
